Results reported in paper PMC8213057, “Targeting ALK2: An Open Science Approach to Developing Therapeutics for the Treatment of Diffuse Intrinsic Pontine Glioma” (Journal of Medicinal Chemistry, 2020).
Values joined by “and” are separate entries in the source; they are usually repeats but may differ in a detail not shown here. Equal values may be shown once.

Legend:
GRK4 = GRK4 (Homo sapiens, UniProt P32298); assay: biochemical; settings: read-out: % enzyme activity, 1 μM; Run 1, Run 2
BMX/ETK = target: T1, BMX/ETK (Homo sapiens, UniProt P51813); settings: 1 μM; Run 1, Run 2
T1 sequence (P51813 1-675): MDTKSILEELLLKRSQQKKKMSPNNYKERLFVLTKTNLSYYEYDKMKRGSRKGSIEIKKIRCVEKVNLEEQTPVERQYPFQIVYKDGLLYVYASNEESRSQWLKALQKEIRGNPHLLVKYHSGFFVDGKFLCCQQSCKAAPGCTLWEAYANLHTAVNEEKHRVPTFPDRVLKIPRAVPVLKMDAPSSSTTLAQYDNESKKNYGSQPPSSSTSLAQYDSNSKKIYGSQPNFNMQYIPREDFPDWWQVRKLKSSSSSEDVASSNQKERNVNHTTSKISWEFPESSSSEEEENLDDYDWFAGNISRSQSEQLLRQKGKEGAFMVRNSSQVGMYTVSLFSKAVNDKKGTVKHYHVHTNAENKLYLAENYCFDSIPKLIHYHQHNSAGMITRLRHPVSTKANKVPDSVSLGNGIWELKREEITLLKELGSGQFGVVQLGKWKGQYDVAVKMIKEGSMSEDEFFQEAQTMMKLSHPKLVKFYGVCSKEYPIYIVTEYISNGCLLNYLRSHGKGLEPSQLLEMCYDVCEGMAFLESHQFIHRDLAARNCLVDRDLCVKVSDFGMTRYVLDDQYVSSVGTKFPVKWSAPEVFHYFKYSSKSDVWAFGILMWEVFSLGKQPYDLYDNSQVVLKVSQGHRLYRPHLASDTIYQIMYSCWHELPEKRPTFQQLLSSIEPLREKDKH

CK1g1 = CK1g1 (Homo sapiens, UniProt Q9HCP0); assay: biochemical; settings: read-out: % enzyme activity, 1 μM; Run 1, Run 2
SGK2 = SGK2 (Homo sapiens, UniProt Q9HBY8); settings: 1 μM; Run 1, Run 2
SGK2, sequence (Q9HBY8 whole entry): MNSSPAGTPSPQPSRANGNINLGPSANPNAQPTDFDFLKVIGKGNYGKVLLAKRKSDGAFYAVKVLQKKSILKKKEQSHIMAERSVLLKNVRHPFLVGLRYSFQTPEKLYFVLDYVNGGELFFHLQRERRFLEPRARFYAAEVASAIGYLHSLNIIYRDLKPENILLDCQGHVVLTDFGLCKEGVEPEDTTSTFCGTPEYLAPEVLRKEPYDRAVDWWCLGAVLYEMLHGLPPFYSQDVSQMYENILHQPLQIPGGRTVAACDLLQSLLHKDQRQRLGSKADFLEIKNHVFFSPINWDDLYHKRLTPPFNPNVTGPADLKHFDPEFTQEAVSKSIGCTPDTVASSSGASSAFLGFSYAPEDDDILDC

CK2a = CK2a (Homo sapiens, UniProt P68400); settings: 1 μM; Run 1, Run 2
SRPK2 = SRPK2 (Homo sapiens, UniProt P78362); settings: 1 μM; Run 1, Run 2
SRPK2, sequence (P78362 whole entry): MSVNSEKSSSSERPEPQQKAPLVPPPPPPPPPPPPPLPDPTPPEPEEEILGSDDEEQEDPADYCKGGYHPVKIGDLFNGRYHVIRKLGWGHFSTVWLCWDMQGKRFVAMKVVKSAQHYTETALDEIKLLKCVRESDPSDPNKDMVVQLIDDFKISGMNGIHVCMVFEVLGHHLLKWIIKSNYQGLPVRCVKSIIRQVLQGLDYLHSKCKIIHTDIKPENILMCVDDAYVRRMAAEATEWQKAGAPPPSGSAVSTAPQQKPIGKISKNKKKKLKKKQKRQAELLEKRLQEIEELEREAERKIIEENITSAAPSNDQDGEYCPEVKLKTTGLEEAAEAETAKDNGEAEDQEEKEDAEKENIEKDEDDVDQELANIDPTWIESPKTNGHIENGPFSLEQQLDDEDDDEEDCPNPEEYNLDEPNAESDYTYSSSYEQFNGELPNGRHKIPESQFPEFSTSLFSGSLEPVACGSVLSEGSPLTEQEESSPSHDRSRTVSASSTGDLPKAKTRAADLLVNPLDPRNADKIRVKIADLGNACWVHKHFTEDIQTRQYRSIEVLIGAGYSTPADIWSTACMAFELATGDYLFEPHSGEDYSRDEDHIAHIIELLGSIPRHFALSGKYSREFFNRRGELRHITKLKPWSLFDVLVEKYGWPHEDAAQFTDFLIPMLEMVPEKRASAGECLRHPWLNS

ROCK2 = ROCK2 (Homo sapiens, UniProt O75116); settings: 1 μM; Run 1, Run 2
ROCK2, sequence (O75116 whole entry): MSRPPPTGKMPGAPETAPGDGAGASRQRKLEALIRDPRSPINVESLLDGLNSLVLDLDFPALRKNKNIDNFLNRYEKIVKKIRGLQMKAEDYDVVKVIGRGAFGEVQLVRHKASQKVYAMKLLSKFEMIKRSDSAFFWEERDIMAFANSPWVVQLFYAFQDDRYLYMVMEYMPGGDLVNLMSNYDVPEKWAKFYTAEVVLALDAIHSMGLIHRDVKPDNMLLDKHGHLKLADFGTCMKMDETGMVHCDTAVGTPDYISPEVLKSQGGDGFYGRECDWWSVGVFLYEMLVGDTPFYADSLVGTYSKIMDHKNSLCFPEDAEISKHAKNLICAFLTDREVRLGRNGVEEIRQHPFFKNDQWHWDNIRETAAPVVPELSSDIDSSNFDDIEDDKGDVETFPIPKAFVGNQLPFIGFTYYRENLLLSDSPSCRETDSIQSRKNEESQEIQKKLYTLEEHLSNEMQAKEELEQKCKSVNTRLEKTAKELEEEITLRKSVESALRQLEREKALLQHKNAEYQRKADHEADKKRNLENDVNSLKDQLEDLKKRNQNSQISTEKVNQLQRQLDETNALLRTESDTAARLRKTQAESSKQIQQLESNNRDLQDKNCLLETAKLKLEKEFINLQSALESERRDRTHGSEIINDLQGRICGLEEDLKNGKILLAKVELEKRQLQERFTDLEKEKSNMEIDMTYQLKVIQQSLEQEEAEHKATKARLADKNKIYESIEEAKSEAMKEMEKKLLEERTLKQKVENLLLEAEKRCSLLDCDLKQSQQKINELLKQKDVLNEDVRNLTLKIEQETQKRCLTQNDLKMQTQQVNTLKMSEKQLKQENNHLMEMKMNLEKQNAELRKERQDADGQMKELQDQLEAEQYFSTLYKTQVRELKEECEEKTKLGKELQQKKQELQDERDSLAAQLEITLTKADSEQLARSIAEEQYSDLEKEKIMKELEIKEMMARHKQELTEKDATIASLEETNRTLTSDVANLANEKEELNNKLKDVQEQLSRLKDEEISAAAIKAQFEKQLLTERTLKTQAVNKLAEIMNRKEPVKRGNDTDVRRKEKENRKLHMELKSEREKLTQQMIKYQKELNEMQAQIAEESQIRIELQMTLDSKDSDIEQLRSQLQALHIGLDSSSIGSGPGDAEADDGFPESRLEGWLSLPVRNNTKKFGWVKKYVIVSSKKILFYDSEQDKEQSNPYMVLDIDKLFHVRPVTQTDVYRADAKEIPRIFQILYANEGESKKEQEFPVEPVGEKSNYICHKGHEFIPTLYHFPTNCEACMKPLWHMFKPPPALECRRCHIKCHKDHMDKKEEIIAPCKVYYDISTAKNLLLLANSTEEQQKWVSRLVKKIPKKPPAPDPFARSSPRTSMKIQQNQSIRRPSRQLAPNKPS

GRK7 = target: T2, GRK7 (Homo sapiens, UniProt Q8WTQ7); settings: 1 μM; Run 1, Run 2
T2 sequence (Q8WTQ7 1-553): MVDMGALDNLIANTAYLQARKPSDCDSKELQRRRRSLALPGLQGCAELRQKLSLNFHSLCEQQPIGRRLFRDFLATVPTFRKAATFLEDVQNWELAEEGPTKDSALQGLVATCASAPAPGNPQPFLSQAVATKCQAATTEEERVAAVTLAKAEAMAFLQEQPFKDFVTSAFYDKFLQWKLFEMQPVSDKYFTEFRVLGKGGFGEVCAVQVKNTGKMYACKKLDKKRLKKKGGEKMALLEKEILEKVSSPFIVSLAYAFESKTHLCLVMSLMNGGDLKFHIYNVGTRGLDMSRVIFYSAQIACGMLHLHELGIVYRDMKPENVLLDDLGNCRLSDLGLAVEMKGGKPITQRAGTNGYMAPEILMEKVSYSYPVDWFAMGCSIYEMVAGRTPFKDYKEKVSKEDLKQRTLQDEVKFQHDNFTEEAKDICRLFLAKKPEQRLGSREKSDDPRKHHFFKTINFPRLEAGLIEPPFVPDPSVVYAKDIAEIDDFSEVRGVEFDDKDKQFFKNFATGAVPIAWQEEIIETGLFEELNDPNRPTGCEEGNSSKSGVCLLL

EPHA5 = EPHA5 (Homo sapiens, UniProt P54756); assay: biochemical; settings: read-out: % enzyme activity, 1 μM; Run 1, Run 2
EPHA5, sequence (P54756 25-1037): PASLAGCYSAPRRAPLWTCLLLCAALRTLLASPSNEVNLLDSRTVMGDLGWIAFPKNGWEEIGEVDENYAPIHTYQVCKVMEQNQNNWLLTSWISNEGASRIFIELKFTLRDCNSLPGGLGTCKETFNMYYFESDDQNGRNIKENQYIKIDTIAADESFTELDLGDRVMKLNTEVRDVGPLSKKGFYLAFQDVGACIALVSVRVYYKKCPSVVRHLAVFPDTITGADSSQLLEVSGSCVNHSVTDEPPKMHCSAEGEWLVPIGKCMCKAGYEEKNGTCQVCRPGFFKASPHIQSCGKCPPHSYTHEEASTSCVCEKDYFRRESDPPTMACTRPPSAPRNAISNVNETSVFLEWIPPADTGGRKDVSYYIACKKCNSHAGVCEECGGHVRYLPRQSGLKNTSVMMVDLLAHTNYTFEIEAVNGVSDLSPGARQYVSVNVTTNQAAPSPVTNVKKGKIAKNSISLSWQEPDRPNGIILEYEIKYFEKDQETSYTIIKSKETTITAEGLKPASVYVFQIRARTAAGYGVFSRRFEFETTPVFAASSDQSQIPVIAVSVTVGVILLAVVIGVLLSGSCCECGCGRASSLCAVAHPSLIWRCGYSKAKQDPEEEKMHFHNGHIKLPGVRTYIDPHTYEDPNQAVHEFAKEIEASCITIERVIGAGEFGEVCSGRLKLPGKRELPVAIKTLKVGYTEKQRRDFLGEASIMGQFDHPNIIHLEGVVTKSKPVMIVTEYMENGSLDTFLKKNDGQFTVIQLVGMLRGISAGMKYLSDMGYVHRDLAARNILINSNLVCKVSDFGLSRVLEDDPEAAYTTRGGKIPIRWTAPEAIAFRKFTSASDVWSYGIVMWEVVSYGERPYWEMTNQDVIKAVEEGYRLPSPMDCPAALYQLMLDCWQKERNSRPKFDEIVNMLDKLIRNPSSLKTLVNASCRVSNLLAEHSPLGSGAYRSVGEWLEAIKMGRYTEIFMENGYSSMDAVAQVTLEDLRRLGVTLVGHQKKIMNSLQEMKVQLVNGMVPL

TYK2 = TYK2 (Homo sapiens, UniProt P29597); assay: biochemical; settings: read-out: % enzyme activity, 1 μM; Run 1, Run 2
DDR2 = target: T3, DDR2 (Homo sapiens, UniProt Q16832); settings: 1 μM; Run 1, Run 2
T3 sequence (Q16832 22-855): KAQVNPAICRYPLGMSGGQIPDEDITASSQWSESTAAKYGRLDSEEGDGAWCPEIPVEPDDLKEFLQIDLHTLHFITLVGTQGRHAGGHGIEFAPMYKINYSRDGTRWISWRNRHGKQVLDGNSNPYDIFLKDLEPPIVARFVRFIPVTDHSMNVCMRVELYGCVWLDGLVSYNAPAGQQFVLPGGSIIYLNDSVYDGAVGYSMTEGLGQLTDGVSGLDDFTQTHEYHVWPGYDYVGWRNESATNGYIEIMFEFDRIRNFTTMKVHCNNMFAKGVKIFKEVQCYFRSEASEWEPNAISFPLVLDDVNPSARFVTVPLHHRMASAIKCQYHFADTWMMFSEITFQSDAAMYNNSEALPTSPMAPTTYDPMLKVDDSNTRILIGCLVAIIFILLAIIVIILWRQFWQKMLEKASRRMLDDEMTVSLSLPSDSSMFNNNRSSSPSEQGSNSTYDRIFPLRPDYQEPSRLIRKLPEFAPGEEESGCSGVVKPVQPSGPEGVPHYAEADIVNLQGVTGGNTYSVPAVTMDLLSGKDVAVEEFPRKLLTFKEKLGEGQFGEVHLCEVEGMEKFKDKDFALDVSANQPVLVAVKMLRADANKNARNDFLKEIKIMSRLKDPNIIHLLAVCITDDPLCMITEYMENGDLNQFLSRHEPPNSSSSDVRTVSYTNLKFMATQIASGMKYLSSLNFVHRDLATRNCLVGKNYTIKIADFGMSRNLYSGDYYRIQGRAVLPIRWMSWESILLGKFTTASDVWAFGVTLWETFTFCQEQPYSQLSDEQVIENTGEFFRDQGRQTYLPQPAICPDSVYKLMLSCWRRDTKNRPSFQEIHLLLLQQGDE

FLT4/VEGFR3 = FLT4/VEGFR3 (Homo sapiens, UniProt P35916); assay: biochemical; settings: read-out: % enzyme activity, 1 μM; Run 1, Run 2
FLT4/VEGFR3, sequence (P35916 25-1363): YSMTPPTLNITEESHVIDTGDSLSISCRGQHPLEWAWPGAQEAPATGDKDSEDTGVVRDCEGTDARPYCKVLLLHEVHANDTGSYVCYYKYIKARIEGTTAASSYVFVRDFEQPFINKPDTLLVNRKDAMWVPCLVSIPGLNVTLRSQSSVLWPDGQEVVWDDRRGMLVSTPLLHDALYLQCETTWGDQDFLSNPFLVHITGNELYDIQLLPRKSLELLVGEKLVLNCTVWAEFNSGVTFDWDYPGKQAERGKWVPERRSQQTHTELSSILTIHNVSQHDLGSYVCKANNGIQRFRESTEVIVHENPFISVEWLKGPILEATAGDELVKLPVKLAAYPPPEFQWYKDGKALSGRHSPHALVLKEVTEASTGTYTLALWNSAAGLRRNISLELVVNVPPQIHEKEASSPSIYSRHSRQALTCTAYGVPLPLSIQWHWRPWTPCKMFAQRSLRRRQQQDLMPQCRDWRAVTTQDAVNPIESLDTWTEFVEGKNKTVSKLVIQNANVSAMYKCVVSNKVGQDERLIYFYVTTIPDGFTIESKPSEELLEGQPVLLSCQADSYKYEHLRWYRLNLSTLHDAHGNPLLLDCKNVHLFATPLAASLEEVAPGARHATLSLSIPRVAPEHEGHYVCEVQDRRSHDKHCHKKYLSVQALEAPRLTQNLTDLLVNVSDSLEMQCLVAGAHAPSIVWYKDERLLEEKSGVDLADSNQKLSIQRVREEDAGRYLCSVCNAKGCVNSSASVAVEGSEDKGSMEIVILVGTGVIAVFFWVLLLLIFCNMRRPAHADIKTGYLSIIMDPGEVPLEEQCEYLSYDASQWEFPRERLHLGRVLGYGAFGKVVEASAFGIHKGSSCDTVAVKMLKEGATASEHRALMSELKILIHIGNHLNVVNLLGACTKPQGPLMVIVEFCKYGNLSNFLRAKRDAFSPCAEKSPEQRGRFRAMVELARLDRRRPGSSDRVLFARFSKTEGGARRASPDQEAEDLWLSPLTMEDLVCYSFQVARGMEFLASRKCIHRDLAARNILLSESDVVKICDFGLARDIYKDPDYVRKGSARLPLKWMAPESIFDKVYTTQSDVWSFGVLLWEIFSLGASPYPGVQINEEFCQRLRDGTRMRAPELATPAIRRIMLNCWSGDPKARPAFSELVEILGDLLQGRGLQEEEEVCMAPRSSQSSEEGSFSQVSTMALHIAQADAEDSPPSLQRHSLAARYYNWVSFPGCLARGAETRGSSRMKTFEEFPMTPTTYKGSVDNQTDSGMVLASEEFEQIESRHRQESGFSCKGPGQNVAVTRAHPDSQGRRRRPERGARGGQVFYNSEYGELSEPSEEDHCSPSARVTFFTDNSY

Compound	remaining activity at 1 µM (GRK4)	% enzyme activity (BMX/ETK)	remaining activity at 1 µM (CK1g1)	% enzyme activity (SGK2)	% enzyme activity (CK2a)	% enzyme activity (SRPK2)	% enzyme activity (ROCK2)	% enzyme activity (GRK7)	remaining activity at 1 µM (EPHA5)	% enzyme activity at 1 μM (TNK1)	remaining activity at 1 µM (TYK2)	% enzyme activity (DDR2)	remaining activity at 1 µM (FLT4/VEGFR3)
COc1cc(-c2cncc(-c3ccc(N4C[C@@H](C)N(C)[C@@H](C)C4)cc3)c2C)cc(F)c1C(N)=O [Compound 26c, 2-Fluoro-6-methoxy-4-(4-methyl-5-(4-((3R,5S)-3,4,5-trimethylpiperazin-1-yl)phenyl)pyridin-3-yl)benzamide]	97.1%	100.72%	71.7%	100.91%	86.32%	115.95%	93.98%	91.35%	92.7%	98.6% and 98.2%	103%	92.27%	97.1%
COc1cc(-c2cncc(-c3ccc(N4CCN(C)CC4)cc3)c2C)cc(F)c1C(N)=O [Compound 26a, 2-Fluoro-6-methoxy-4-(4-methyl-5-(4-(4-methylpiperazin-1-yl)phenyl)pyridin-3-yl)benzamide]	80.4%	102.04%	57.7%	100.43%	91.32%	94.13%	115.13%	93.81%	92.2%	105% and 99.5%	92.6%	96.68%	98.4%
